Reference: BindingDB's records for doi:10.1016/j.bmcl.2015.05.099 (Mercer University, 2015)

How the values were obtained:
Albumin [1] = target: T1, Albumin (Homo sapiens, UniProt P02768); test: Binding affinity to human serum albumin with excitation at 285 nm after 30 mins by fluorescence spectrophotometric analysis
Albumin [2] = target: T1, Albumin; test: Binding affinity to human serum albumin with excitation at 295 nm after 30 mins by fluorescence spectrophotometric analysis

T1 sequence (P02768 whole entry): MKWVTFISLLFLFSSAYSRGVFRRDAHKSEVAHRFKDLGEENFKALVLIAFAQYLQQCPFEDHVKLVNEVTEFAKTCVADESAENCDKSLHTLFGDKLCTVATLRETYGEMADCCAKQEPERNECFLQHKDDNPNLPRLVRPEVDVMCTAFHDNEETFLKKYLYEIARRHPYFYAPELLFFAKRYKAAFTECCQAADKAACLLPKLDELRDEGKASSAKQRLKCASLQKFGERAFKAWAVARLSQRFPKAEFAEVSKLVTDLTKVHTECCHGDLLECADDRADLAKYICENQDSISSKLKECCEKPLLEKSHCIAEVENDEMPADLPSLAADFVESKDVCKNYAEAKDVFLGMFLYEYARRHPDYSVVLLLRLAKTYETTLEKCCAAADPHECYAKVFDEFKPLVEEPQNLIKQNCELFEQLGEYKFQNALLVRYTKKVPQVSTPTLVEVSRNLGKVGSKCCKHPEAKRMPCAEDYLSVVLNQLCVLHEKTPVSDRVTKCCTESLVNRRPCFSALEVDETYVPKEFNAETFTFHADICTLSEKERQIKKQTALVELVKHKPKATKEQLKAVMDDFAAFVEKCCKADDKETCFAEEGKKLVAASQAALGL

## C=C(C)[C@@H]1CC[C@]2(C(=O)N[C@H](C)C(=O)O)CC[C@]3(C)[C@H](CC[C@@H]4[C@@]5(C)CC[C@H](O)C(C)(C)[C@@H]5CC[C@]43C)[C@@H]12
Albumin [1]
  Kd: 47 µM
Albumin [2]
  Kd: 37 µM

## C=C(C)[C@@H]1CC[C@]2(C(=O)N[C@H](C)C(=O)[O-])CC[C@]3(C)[C@H](CC[C@@H]4[C@@]5(C)CC[C@H](O)C(C)(C)[C@@H]5CC[C@]43C)[C@@H]12.CCCCCCCCCCCC[N+](C)(C)Cc1ccccc1
Albumin [1]
  Kd: 19 µM
Albumin [2]
  Kd: 19 µM

## C=C(C)[C@@H]1CC[C@]2(C(=O)[O-])CC[C@]3(C)[C@H](CC[C@@H]4[C@@]5(C)CC[C@H](O)C(C)(C)[C@@H]5CC[C@]43C)[C@@H]12.CCCCCCCCCCCC[N+](C)(C)Cc1ccccc1
Albumin [1]
  Kd: 1.6 µM
Albumin [2]
  Kd: 1.9 µM
